Results from patent publication US9592228B2, “Treatment of inflammation using alpha 7 receptor-binding agonists” (THE FEINSTEIN INSTITUTE FOR MEDICAL RESEARCH, priority 2002, dated 2017).
“And” between values parts separate entries of the source, which are not always exact repeats. Identical values can stand only once. Like-named read-outs stand apart in the source and are kept apart here.

What was measured:
[1] = system: LPS induced TNF-α release from murine RAW 264.7 macrophage-like cells; experiment: cells; format: cell-based
[2] = system: TNF production by LPS-stimulated nicotinic acetylcholine receptor α7 subunit knockout peritoneal macrophages; format: cell-based, mouse
[3] = system: TNF production by LPS-stimulated wild type peritoneal macrophages; experiment: TNF production by wild type peritoneal macrophages; format: cell-based, mouse; details: 4 h, ELISA, mean ± s.e.m., n = 8
Balb/c mice = details: mouse, in vivo
C57 B/6 mice [4] = details: mouse, in vivo
C57 B/6 mice [5] = details: mouse, in vivo; remark: listed apart in the source
macrophages = details: data not shown
[6] = target: α-bungarotoxin-binding nicotinic receptors on primary human macrophages (Homo sapiens, UniProt P36544)
Sequence of α-bungarotoxin-binding nicotinic receptors on primary human macrophages (P36544 23-502): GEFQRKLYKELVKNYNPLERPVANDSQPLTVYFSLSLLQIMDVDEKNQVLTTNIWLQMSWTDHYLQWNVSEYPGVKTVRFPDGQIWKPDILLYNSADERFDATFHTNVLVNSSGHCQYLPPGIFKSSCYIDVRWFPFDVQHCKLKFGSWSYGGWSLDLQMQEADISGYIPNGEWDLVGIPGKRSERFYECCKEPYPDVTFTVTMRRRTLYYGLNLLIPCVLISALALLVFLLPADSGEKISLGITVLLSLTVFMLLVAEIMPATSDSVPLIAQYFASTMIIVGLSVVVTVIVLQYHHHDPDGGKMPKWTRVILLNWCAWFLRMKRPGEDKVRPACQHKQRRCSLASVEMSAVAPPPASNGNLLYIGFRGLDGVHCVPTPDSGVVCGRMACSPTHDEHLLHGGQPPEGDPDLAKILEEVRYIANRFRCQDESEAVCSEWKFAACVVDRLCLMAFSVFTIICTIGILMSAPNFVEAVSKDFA

[7] = agonist 1 μM added 5-10 min before LPS (100 ng/ml)
[8] = agonist 10 μM added 5-10 min before LPS (100 ng/ml)

O=C1NCC2(CN3CCC2CC3)O1 (single isomer, unassigned; (-)) [Compound (VII), (−)-spiro[1-azabicyclo[2.2.2]octane-3,5′-oxazolidin-2′-one]]
TNF-α release from RAW 264.7 cells at the higher concentrations [1]: inhibit TNF-α release | decrease of TNF-α release compared to control cells [1]: more than four times

CC(=O)OCC[N+](C)(C)C [Ach, acetylcholine]
TNF [2]: 20.4 ± 3.8 ng/mL and 21.4 ± 2.4 ng/mL | TNF [3, 7]: 10.3 ± 1.1 ng/mL | TNF [3, 8]: 5.7 ± 0.9 ng/mL

COc1ccc(/C=C2\CCCN=C2c2cccnc2)c(OC)c1 [Compound (V), 3-2,4-dimethoxybenzylidene anabaseine]
mice survived on Day 14 (Balb/c mice): 91% | inhibition of TNF-α release [1]: dose dependently inhibits

COc1cc(O)ccc1/C=C1\CCCN=C1c1cccnc1 [Compound (VI), 3-(4-hydroxy-2-methoxybenzylidene)anabaseine]
colon length compared to control mice (C57 B/6 mice [4]): slightly greater | colon weight (wet weight) compared to control condition (C57 B/6 mice [4]): decreased | mice survived on Day 14 (Balb/c mice): 82% | decrease of the level of circulating TNF-α compared to vehicle control (C57 B/6 mice [5]): approximately 50% | percent inhibition of TNF-α [1]: dose dependently inhibits | IC50 ([1]; Mus musculus, RAW264.7, read-out: estimated IC50, inhibition of TNF-α): ~900 nM

CN1CCCC1c1cccnc1 (stereo not shown) [nicotine]
TNF [2]: 17.8 ± 0.6 ng/mL and 17.4 ± 2.9 ng/mL | TNF production by α7 knockout macrophages in the presence of the agonist [2]: produced TNF normally | TNF [3, 7]: 5.2 ± 0.9 ng/mL | TNF [3, 8]: 7.3 ± 1.0 ng/mL | inhibition of TNF-α release ([1]; 0.001-100 uM added five minutes before LPS (500 ng/ml), 4 hours, ELISA, FIG. 7): dose dependently inhibits | inhibition of LPS-induced TNF release in RAW264.7 ([1]; data not shown): significantly inhibit | calcium influx (macrophages): induces transient calcium influx | effect of pretreatment on intensity of α-bungarotoxin binding [6]: markedly reduced

α-bungarotoxin
binding of α-bungarotoxin on the macrophage surface [6]: Strong binding
